Laboratory results taken from ChEMBL document CHEMBL3885881, “DrugMatrix”.

Species: Rattus norvegicus
Assay: DrugMatrix - Regimen: Daily Repeat
Type: toxicity, organism-based, Sprague-Dawley
Set-up: regimen Daily Repeat, gender Male, age 6-8 weeks
Conditions: in vivo, po, route oral GAVAGE, vehicle .5 % CMC; for BASOPHIL / EOSINOPHIL / ERYTHROCYTE COUNT / HEMATOCRIT / HEMOGLOBIN / LYMPHOCYTE / MEAN CORPUSCULAR HEMOGLOBIN / MEAN CORPUSCULAR HEMOGLOBIN CONCENTRATION / MEAN CORPUSCULAR VOLUME / MONOCYTE / NEUTROPHIL / PLATELET COUNT: tissue Blood; for ALANINE AMINOTRANSFERASE / ALBUMIN / ALKALINE PHOSPHATASE / ASPARTATE AMINOTRANSFERASE / BLOOD UREA NITROGEN / CHLORIDE / CHOLESTEROL / CREATINE PHOSPHOKINASE / CREATININE / GLUCOSE / PHOSPHORUS / POTASSIUM / SODIUM / TOTAL BILIRUBIN / TOTAL PROTEIN: tissue Plasma
[1] = 0 mg/kg, 72 h, dose level Control, time 3 day
[2] = 0 mg/kg, 120 h, dose level Control, time 5 day
[3] = 10 mg/kg, 72 h, dose level Low, time 3 day
[4] = 10 mg/kg, 120 h, dose level Low, time 5 day
[5] = 750 mg/kg, 72 h, dose level High, time 3 day
[6] = 750 mg/kg, 120 h, dose level High, time 5 day

## OCCN(CCO)c1nc(N2CCCCC2)c2nc(N(CCO)CCO)nc(N3CCCCC3)c2n1 [DIPYRIDAMOLE]
[1]
  BASOPHIL: 0%
  EOSINOPHIL: 0%
  ERYTHROCYTE COUNT: 6.34 x10E6/uL
  HEMATOCRIT: 37.62%
  HEMOGLOBIN: 14.82 G/DL
  LYMPHOCYTE: 87.5%
  MEAN CORPUSCULAR HEMOGLOBIN: 23.48 pg
  MEAN CORPUSCULAR HEMOGLOBIN CONCENTRATION: 39.5 G/DL
  MEAN CORPUSCULAR VOLUME: 59.45 fL
  MONOCYTE: 1.67%
  NEUTROPHIL: 10.83%
  PLATELET COUNT: 1074.83 x10E3/uL
  ALANINE AMINOTRANSFERASE: 36.5 u/L
  ALBUMIN: 3.9 G/DL
  ALKALINE PHOSPHATASE: 370.17 u/L
  ASPARTATE AMINOTRANSFERASE: 63.17 u/L
  BLOOD UREA NITROGEN: 16.83 mg/dL
  CHLORIDE: 99.33 MEQ/L
  CHOLESTEROL: 64.33 mg/dL
  CREATINE PHOSPHOKINASE: 127 u/L
  CREATININE: 0.55 mg/dL
  GLUCOSE: 173.5 mg/dL
  PHOSPHORUS: 10.08 mg/dL
  POTASSIUM: 6.23 MEQ/L
  SODIUM: 143.5 MEQ/L
  TOTAL BILIRUBIN: 0.52 mg/dL
  TOTAL PROTEIN: 6.35 G/DL
[2]
  BASOPHIL: 0%
  EOSINOPHIL: 0.17%
  ERYTHROCYTE COUNT: 6.12 x10E6/uL
  HEMATOCRIT: 37.08%
  HEMOGLOBIN: 14.82 G/DL
  LYMPHOCYTE: 83.33%
  MEAN CORPUSCULAR HEMOGLOBIN: 24.25 pg
  MEAN CORPUSCULAR HEMOGLOBIN CONCENTRATION: 39.97 G/DL
  MEAN CORPUSCULAR VOLUME: 60.65 fL
  MONOCYTE: 1.5%
  NEUTROPHIL: 15%
  PLATELET COUNT: 1042.83 x10E3/uL
  ALANINE AMINOTRANSFERASE: 46 u/L
  ALBUMIN: 3.82 G/DL
  ALKALINE PHOSPHATASE: 369.5 u/L
  ASPARTATE AMINOTRANSFERASE: 65 u/L
  BLOOD UREA NITROGEN: 16.33 mg/dL
  CHLORIDE: 100.67 MEQ/L
  CHOLESTEROL: 57.17 mg/dL
  CREATINE PHOSPHOKINASE: 130 u/L
  CREATININE: 0.53 mg/dL
  GLUCOSE: 163.33 mg/dL
  PHOSPHORUS: 9.53 mg/dL
  POTASSIUM: 6.27 MEQ/L
  SODIUM: 144.83 MEQ/L
  TOTAL BILIRUBIN: 0.55 mg/dL
  TOTAL PROTEIN: 6.32 G/DL
[3]
  BASOPHIL: 0%
  EOSINOPHIL: 0.33%
  ERYTHROCYTE COUNT: 6.75 x10E6/uL
  HEMATOCRIT: 39.77%
  HEMOGLOBIN: 15.7 G/DL
  LYMPHOCYTE: 90.67%
  MEAN CORPUSCULAR HEMOGLOBIN: 23.23 pg
  MEAN CORPUSCULAR HEMOGLOBIN CONCENTRATION: 39.53 G/DL
  MEAN CORPUSCULAR VOLUME: 58.8 fL
  MONOCYTE: 0.33%
  NEUTROPHIL: 8.67%
  PLATELET COUNT: 1406 x10E3/uL
  ALANINE AMINOTRANSFERASE: 42.67 u/L
  ALBUMIN: 4.03 G/DL
  ALKALINE PHOSPHATASE: 406.33 u/L
  ASPARTATE AMINOTRANSFERASE: 71.33 u/L
  BLOOD UREA NITROGEN: 15.67 mg/dL
  CHLORIDE: 100.33 MEQ/L
  CHOLESTEROL: 71 mg/dL
  CREATINE PHOSPHOKINASE: 229.67 u/L
  CREATININE: 0.53 mg/dL
  GLUCOSE: 148.67 mg/dL
  PHOSPHORUS: 11.33 mg/dL
  POTASSIUM: 6.33 MEQ/L
  SODIUM: 144.33 MEQ/L
  TOTAL BILIRUBIN: 0.27 mg/dL
  TOTAL PROTEIN: 6.57 G/DL
[4]
  BASOPHIL: 0%
  EOSINOPHIL: 0.5%
  ERYTHROCYTE COUNT: 6.79 x10E6/uL
  HEMATOCRIT: 39%
  HEMOGLOBIN: 15.6 G/DL
  LYMPHOCYTE: 87%
  MEAN CORPUSCULAR HEMOGLOBIN: 23 pg
  MEAN CORPUSCULAR HEMOGLOBIN CONCENTRATION: 40.05 G/DL
  MEAN CORPUSCULAR VOLUME: 57.45 fL
  MONOCYTE: 0.5%
  NEUTROPHIL: 12%
  PLATELET COUNT: 1171.5 x10E3/uL
  ALANINE AMINOTRANSFERASE: 35 u/L
  ALBUMIN: 3.8 G/DL
  ALKALINE PHOSPHATASE: 332.33 u/L
  ASPARTATE AMINOTRANSFERASE: 57 u/L
  BLOOD UREA NITROGEN: 15 mg/dL
  CHLORIDE: 100.67 MEQ/L
  CHOLESTEROL: 70.33 mg/dL
  CREATINE PHOSPHOKINASE: 146.33 u/L
  CREATININE: 0.6 mg/dL
  GLUCOSE: 207 mg/dL
  PHOSPHORUS: 11.67 mg/dL
  POTASSIUM: 5.6 MEQ/L
  SODIUM: 143.67 MEQ/L
  TOTAL BILIRUBIN: 0.43 mg/dL
  TOTAL PROTEIN: 6.33 G/DL
[5]
  BASOPHIL: 0%
  EOSINOPHIL: 0.33%
  ERYTHROCYTE COUNT: 6.25 x10E6/uL
  HEMATOCRIT: 37.2%
  HEMOGLOBIN: 14.47 G/DL
  LYMPHOCYTE: 88.33%
  MEAN CORPUSCULAR HEMOGLOBIN: 23.2 pg
  MEAN CORPUSCULAR HEMOGLOBIN CONCENTRATION: 38.9 G/DL
  MEAN CORPUSCULAR VOLUME: 59.57 fL
  MONOCYTE: 1%
  NEUTROPHIL: 10.33%
  PLATELET COUNT: 1166.33 x10E3/uL
  ALANINE AMINOTRANSFERASE: 38 u/L
  ALBUMIN: 3.6 G/DL
  ALKALINE PHOSPHATASE: 276.67 u/L
  ASPARTATE AMINOTRANSFERASE: 56.33 u/L
  BLOOD UREA NITROGEN: 13.33 mg/dL
  CHLORIDE: 99 MEQ/L
  CHOLESTEROL: 75.67 mg/dL
  CREATINE PHOSPHOKINASE: 140 u/L
  CREATININE: 0.53 mg/dL
  GLUCOSE: 163.67 mg/dL
  PHOSPHORUS: 11.63 mg/dL
  POTASSIUM: 6.2 MEQ/L
  SODIUM: 143 MEQ/L
  TOTAL BILIRUBIN: 0.3 mg/dL
  TOTAL PROTEIN: 5.77 G/DL
[6]
  BASOPHIL: 0%
  EOSINOPHIL: 0%
  ERYTHROCYTE COUNT: 6.47 x10E6/uL
  HEMATOCRIT: 38.13%
  HEMOGLOBIN: 15 G/DL
  LYMPHOCYTE: 90.33%
  MEAN CORPUSCULAR HEMOGLOBIN: 23.2 pg
  MEAN CORPUSCULAR HEMOGLOBIN CONCENTRATION: 39.33 G/DL
  MEAN CORPUSCULAR VOLUME: 58.97 fL
  MONOCYTE: 0.33%
  NEUTROPHIL: 9.33%
  PLATELET COUNT: 1245.33 x10E3/uL
  ALANINE AMINOTRANSFERASE: 40 u/L
  ALBUMIN: 3.73 G/DL
  ALKALINE PHOSPHATASE: 320.33 u/L
  ASPARTATE AMINOTRANSFERASE: 55 u/L
  BLOOD UREA NITROGEN: 13.33 mg/dL
  CHLORIDE: 98.33 MEQ/L
  CHOLESTEROL: 72 mg/dL
  CREATINE PHOSPHOKINASE: 136.67 u/L
  CREATININE: 0.57 mg/dL
  GLUCOSE: 158 mg/dL
  PHOSPHORUS: 10.37 mg/dL
  POTASSIUM: 6.03 MEQ/L
  SODIUM: 144 MEQ/L
  TOTAL BILIRUBIN: 0.4 mg/dL
  TOTAL PROTEIN: 5.97 G/DL
